Experimental findings from patent publication US8865728B2, “Combinations comprising methotrexate and DHODH inhibitors” (Almirall, S.A., priority 2008, dated 2014) are described below.

“Also recorded” adds a separate entry of the source.

Data set [1] in a line: Acute hepatotoxicity assay in Swiss mice (plasma liver markers). In kind it is in vivo. Conditions: for ALT plasma level / AST plasma level / BIL (total bilirubin) plasma level: Swiss mice, single 100 mg/kg intraperitoneal, 24 h after administration. Here is the method:
Acute hepatotoxicity assays were performed in Swiss mice. Animals received a single administration of either vehicle, or 100 mg/kg of teriflunomide or a compound of the present invention (compounds from the list indicated previously) by intraperitoneal route. Twenty-four hours later, animals were sacrificed and the levels of liver markers AST(aspartate aminotransferase), ALT(alanine aminotransferase) and BIL(total bilirubin) in plasma were determined.

The next data set has as its target human DHODH (Homo sapiens, UniProt Q02127). Put plainly: Inhibition of human DHODH activity assay (DCIP chromogen reduction). The format is biochemical. To be noted: chromogen reduction assay with DCIP, human enzyme extract; read-out: hDHODH IC50.
In data set [2] the test system is rat adjuvant-induced arthritis model (AIA). Put plainly: Efficacy in rat adjuvant-induced arthritis model (AIA), curative protocol. The format is in vivo, Wistar rats. Conditions: arthritic rats, oral once a day, MTX 0.05 mg/Kg/day, AUC of right paw volumes days 10-21 vs vehicle; for % AUC inhibition right paw: Teriflunomide 3 mg/Kg/day, one experiment with 6 animals. Here is the method: The effect of DHODH inhibitor compounds were tested in combination with methotrexate (0.05 mg/Kg/day) in the rat adjuvant-induced arthritis model (AIA) in animals with established disease (curative protocol). Briefly, Complete Freund Adjuvant (CFA) was injected into the left hind footpad of Wistar rats, and 10 days later the swelling of the two rear paws was measured with a plethysmometer. […] Compounds were administered orally once a day for 10 days and paw volumes were determined every two days up to day 21.

Chain of human DHODH (Q02127 whole entry): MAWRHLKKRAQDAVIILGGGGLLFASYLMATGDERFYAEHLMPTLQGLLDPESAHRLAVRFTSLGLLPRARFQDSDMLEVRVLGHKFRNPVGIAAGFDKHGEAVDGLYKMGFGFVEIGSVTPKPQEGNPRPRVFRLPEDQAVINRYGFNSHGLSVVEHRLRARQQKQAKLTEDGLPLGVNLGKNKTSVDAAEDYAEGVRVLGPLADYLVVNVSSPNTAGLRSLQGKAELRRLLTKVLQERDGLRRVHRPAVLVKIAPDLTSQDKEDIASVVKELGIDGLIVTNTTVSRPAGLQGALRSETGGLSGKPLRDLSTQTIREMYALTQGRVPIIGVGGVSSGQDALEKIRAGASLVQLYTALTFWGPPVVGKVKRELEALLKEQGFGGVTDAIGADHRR
Method for human DHODH: DHODH activity and its inhibition were studied using a chromogen reduction assay with DCIP (2,6-dichlorophenol-indophenol).
Enzyme extracts (8 μl, ˜1.5 μg of human protein) were incubated in 96-well plates. The assay mixture (200 μl) contained 200 μM CoQD, 100 μM L-DHO, 120 μM DCIP in the assay buffer (100 mM HEPES pH 8.0, 150 mM NaCl, 10% Glicerol, 0.05% Triton X-100) and 2 μl of test compound.
The reaction was initiated by adding the enzyme and then incubated for 10 min at room temperature before measuring DCIP reduction by counting a decrease in absorbance at 600 nm using standard instrumentation (Spectramax).
All reactions were carried out in duplicate and graphs, determining IC50 values for each compound, were plotted using the ABase software.

In the case of `CCOc1cccc(-c2cc(F)c(Nc3ncccc3C(=O)O)c(F)c2)c1` [Compound 19, 2-(3′-Ethoxy-3,5-difluorobiphenyl-4-ylamino)nicotinic acid], in data set [1], the ALT plasma level was determined as 60 IU/l, the AST plasma level is 92 IU/l and the “BIL (total bilirubin) plasma level” value was 0.05 mg/dL.
For `CCOc1cccc(-c2ccc(Nc3ncccc3C(=O)O)c(F)c2)c1` [Compound 2, 2-(3′-Ethoxy-3-fluorobiphenyl-4-ylamino)nicotinic acid], in that order: 35 IU/l, 57 IU/l and 0 mg/dL.
In general, IC50 refers to the point on the concentration scale where inhibition reaches its midpoint. In the case of `COc1cccc(-c2cc(F)c(Nc3ncc(C)cc3C(=O)O)c(F)c2)c1` [Compound 35, 2-(3,5-Difluoro-3′-methoxybiphenyl-4-ylamino)-5-methylnicotinic acid], on human DHODH, the half-inhibitory concentration (IC50) was 12 nM.
Turning to `O=C(O)c1cccnc1Nc1c(F)cc(-c2cccc(OC3CC3)c2)cc1F` [Compound 47, 2-(3′-cyclopropoxy-3,5-difluorobiphenyl-4-ylamino)nicotinic acid], in data set [1], the ALT plasma level is 66 IU/l, the AST plasma level amounted to 91 IU/l and the “BIL (total bilirubin) plasma level” value was determined as 0.14 mg/dL.
For the compound `COc1cccc(-c2ccc(Nc3cnccc3C(=O)[O-])c(OC(F)(F)F)c2)c1.[Li+]` [Compound 23, Lithium 3-(3′-methoxy-3-(trifluoromethoxy)biphenyl-4-ylamino)isonicotinate], in data set [1], the ALT plasma level is reported as 35 IU/l, the AST plasma level turned out to be 72 IU/l and the “BIL (total bilirubin) plasma level” value was determined as 0 mg/dL.
Take `CCOc1cccc(-c2ccc(Nc3ncccc3C(=O)O)c(OC(F)(F)F)c2)c1` [Compound 4, 2-(3′-Ethoxy-3-(trifluoromethoxy)biphenyl-4-ylamino)nicotinic acid]: in data set [1], the ALT plasma level was 70 IU/l, the AST plasma level is recorded as 108 IU/l and the “BIL (total bilirubin) plasma level” value is 0.05 mg/dL.
For `Cc1c(-c2ccccc2Cl)cc(F)c(Nc2ncccc2C(=O)O)c1F` [Compound 57, 2-(2′-chloro-3,5-difluoro-2-methylbiphenyl-4-ylamino)nicotinic acid] the same measures were 60 IU/l, 109 IU/l and 0.06 mg/dL.
As to `C/C(O)=C(\C#N)C(=O)Nc1ccc(C(F)(F)F)cc1` [Teriflunomide, reference compound], in data set [1], the ALT plasma level turned out to be 423 IU/l, the AST plasma level came out at 542 IU/l and the “BIL (total bilirubin) plasma level” value was found to be 0.5 mg/dL. In addition, the “change in plasma liver markers (ALT, AST, BIL) compared to vehicle-treated mice” value in data set [1] (mice, intraperitoneal route, 100 mg/kg) was “dramatic increase in the three liver markers; also recorded: drastic increase in the levels of transaminases and bilirrubin in plasma”. Besides, in data set [2], the “% AUC inhibition right paw” value was 56%.
For the compound `Cc1c(-c2ccccc2)cc(F)c(Nc2ncccc2C(=O)O)c1F` [Compound 48, 2-(3,5-difluoro-2-methylbiphenyl-4-ylamino)nicotinic acid], in data set [1], the ALT plasma level worked out at 44 IU/l, the AST plasma level is given as 95 IU/l and the “BIL (total bilirubin) plasma level” value was 0.08 mg/dL.
On to `CN(Cc1cnc2nc(N)nc(N)c2n1)c1ccc(C(=O)N[C@@H](CCC(=O)O)C(=O)O)cc1` [MTX, Methotrexate], for which, in data set [2], the “% AUC inhibition right paw” value is given as 24%. In data set [2] (compound A 3 mg/Kg/day, mean of two independent experiments), the “% inhibition of the inflammation (AUC) Right paw” value is 37%.
As for `O=C(O)c1cccnc1Nc1ccc(-c2cccc(OC(F)(F)F)c2)cc1F` [Compound 3, 2-(3-Fluoro-3′-(trifluoromethoxy)biphenyl-4-ylamino)nicotinic acid], in data set [1], the ALT plasma level is given as 52 IU/l, the AST plasma level was 83 IU/l and the “BIL (total bilirubin) plasma level” value was 0.01 mg/dL.
For `COc1cccc(-c2cc(F)c(Nc3ncccc3C(=O)O)c(F)c2)c1` [Compound 20, 2-(3,5-Difluoro-3′-methoxybiphenyl-4-ylamino)nicotinic acid], in that order: 73 IU/l, 95 IU/l and 0 mg/dL.
For `COc1cccc(-c2ccc(Nc3ncccc3C(=O)O)c(F)c2)c1` [Compound 1, 2-(3-Fluoro-3′-methoxybiphenyl-4-ylamino)nicotinic acid] the same measures were 99 IU/l, 84 IU/l and 0.03 mg/dL.
